Test results published in patent publication US8324209B2, “Pesticidal compositions” (Dow AgroSciences, LLC, priority 2008, dated 2012).

Tested on: cotton aphid (Aphis gossypii)
Assay: Insecticidal test for cotton aphid in foliar spray assay on squash
Type: in vivo
Settings: 200 ppm foliar spray on squash cotyledons; live aphids counted after 3 days; Corrected % Control (Abbott's formula); 4 replications
Description: The compounds identified in the foregoing examples were tested against cotton aphid using procedures described hereinafter. Insecticidal Test for Cotton Aphid (Aphis gossypii) in Foliar Spray Assay Squash seedlings with fully expanded cotyledon leaves were trimmed to one cotyledon per plant and infested with cotton aphid (wingless adults and nymphs) 1 day prior to chemical application. Each plant was examined before chemical application to ensure uniform infestation (ca. 30-70 aphids per plant). Compounds (2 mg) were dissolved in 2 mL of acetone/methanol (1:1) solvent, forming stock solutions of 1000 ppm. The stock solutions were diluted 5× with 0.025% Tween 20 in H2O to obtain a solution at 200 ppm. A hand-held Devilbiss aspirator type sprayer was used to apply the spray solutions until runoff to both sides of the squash cotyledon leaves. Four plants (4 replications) were used for each compound. Reference plants (solvent check) were sprayed with the diluent only. Treated plants were held in a holding room for 3 days at approximately 23° C. and 40% relative humidity (RH) before the number of live aphids on each plant was recorded. Insecticidal activity was measured by Corrected % Control using Abbott's correction formula and presented in Table 1-Activity: Corrected % Control=100*(X−Y)/X • where X=No. of live aphids on solvent check plants • Y=No. of live aphids on treated plants Results are shown in Table 1.

Structure (SMILES) | % Control at ppm, against cotton aphid on squash (foliar spray)
CC(c1cnc(Cl)nc1)S(C)(=O)=NC#N (stereo not drawn) [Compound 1, [1-(2-chloropyrimidin-5-yl)ethyl](methyl)oxido-λ^4-sulfanylidenecyanamide] | A (80-100)
CS(=O)(Cc1ccc(Cl)nn1)=NC#N (stereo not drawn) [Compound 2, [(3-chloropyridazin-6-yl)methyl](methyl)oxido-λ^4-sulfanylidenecyanamide] | A (80-100)
CC(c1cnc(C(F)(F)F)nc1)S(C)(=O)=NC#N (stereo not drawn) [Compound 3, methyl(oxido){1-[2-(trifluoromethyl)pyrimidin-5-yl]ethyl}-λ^4-sulfanylidenecyanamide] | A (80-100)
